Test results published in PMC5038302 (Antimicrobial Agents and Chemotherapy, 2016).
Several values for one entry are separate records, joined by “and”; a condition that tells them apart may be missing. Equal entries are not always repeated. Where two headings read alike, the source gives them in different places.

Key:
[1] = system: SPM-1; type: binding
Method: (§1) Typical experimental parameters for Carr-Purcell-Meiboom-Gill (CPMG) NMR spectroscopy were the following: total echo time, 40 ms; relaxation delay, 2 s; and number of transients, 264 ([31]). The PROJECT-CPMG sequence (90°x-[τ-180°y-τ-90°y-τ-180°y-τ]n-acq) was applied. Water suppression was achieved by presaturation. Prior to Fourier transformation, the data were multiplied with an exponential function with 3-Hz line broadening.
(§2) For ^1H excitation sculpting suppression with perfect echo NMR experiments, spectra were typically obtained using 256 scans and a relaxation delay of 1 s ([32]). A 2-ms sinc pulse was used for water suppression. Prior to Fourier transformation, data were multiplied with an exponential function with 2-Hz line broadening.
(§3) For water-ligand observed gradient spectroscopy (wLOGSY) analyses, typical experimental parameters were the following: mixing time, 1 s; relaxation delay, 2 s; number of transients, 256 ([33]). Solvent excitation was achieved using a 16-ms 180° selective rectangular shape pulse with 1,000 points (Squa100.1000) set at the H2O frequency. Water suppression was achieved by a 2-ms sinc pulse (Sinc1.1000) at the H2O frequency.

[2] = system: NC(=O)[C@@H]1CC[C@@H]2CN1C(=O)N2OS(=O)(=O)O; test: purified protein, by the assay type
[3] = target: T1, FEZ-1 (Fluoribacter gormanii, UniProt Q9K578); design: method as in PMID 11257043; conditions: reported conditions different, read-out: ceftazidime Km; cited from earlier work
[4] = target: T2, NDM-1 (Klebsiella pneumoniae, UniProt C7C422); conditions: cited from earlier work
[5] = target: T3, VIM-2 (Escherichia coli, UniProt Q5U7L7); conditions: cited from earlier work
[6] = system: SPM-1; design: method as in PMID 12543663; conditions: reported conditions different, read-out: ceftazidime Km; cited from earlier work
[7] = system: all of the MBLs (VIM-2, VIM-4, SPM-1, NDM-1, IMP-1, FEZ-1); test: Complete time courses of ceftazidime hydrolysis; type: biochemical; conditions: all MBLs incl. VIM-4; concluded from quasi first-order complete time courses, 5 mM HEPES pH 7.5
[8] = target: T4, IMP-1 (Serratia marcescens, UniProt P52699); conditions: cited from earlier work
[9] = target: T1, FEZ-1; type: binding, Fluoribacter (Legionella) gormanii; conditions: FEZ-1 80 μM, avibactam 4 mM, Tris-D11 50 mM pH 7.5
[10] = target: T5, VIM-4 (Pseudomonas aeruginosa, UniProt Q8KRJ3); conditions: still extremely slow by normal β-lactamase standards
[11] = target: T2, NDM-1; test: biochemical
[12] = target: T5, VIM-4; conditions: LC-MS
[13] = target: BcII (Bacillus cereus, UniProt P04190); type: binding; conditions: BcII 80 μM, avibactam 4 mM, Tris-D11 50 mM pH 7.5
Method: as §1, §2, §3

[14] = target: T1, FEZ-1; test: biochemical; design: species or system Fluoribacter (Legionella) gormanii; conditions: Approximate Ki (= Km) value, from a single avibactam concentration (1 mM), ceftazidime 30 µM substrate
[15] = system: SPM-1; type: biochemical
[16] = target: T2, NDM-1; type: binding; conditions: avibactam 4 mM, Tris-D11 50 mM pH 7.5
[17] = target: T5, VIM-4; type: binding; conditions: VIM-4 80 μM, avibactam 4 mM, Tris-D11 50 mM pH 7.5
[18] = target: T3, VIM-2; type: binding; conditions: VIM-2 80 μM, avibactam 4 mM, Tris-D11 50 mM pH 7.5
[19] = target: T5, VIM-4; conditions: 1 mM avibactam (600 μl), 12 μg VIM-4, 5 mM HEPES pH 7.5, 20 μM ZnCl2, 4 h at 37°C
[20] = target: CphA (Aeromonas hydrophila, UniProt P26918); type: binding; conditions: CphA 80 μM, avibactam 4 mM, Tris-D11 50 mM pH 7.5
[21] = target: T3, VIM-2; test: biochemical
[22] = Stability of avibactam in buffer without enzyme (NMR control); conditions: buffer (Tris-D11 50 mM, pH 7.5)
[23] = target: T4, IMP-1; test: biochemical; conditions: Approximate Ki (= Km) value, from a single avibactam concentration (1 mM), ceftazidime 30 µM substrate
[24] = target: T5, VIM-4; conditions: VIM-4, 240 min, Raman spectroscopy
[25] = target: T2, NDM-1; conditions: NDM-1 0.022 mM; still extremely slow by normal β-lactamase standards
[26] = target: T5, VIM-4; type: biochemical; conditions: read-out: Approximate Ki value (reflecting Km), from a single avibactam concentration (1 mM), ceftazidime 30 µM substrate

T1 sequence (Q9K578 21-282 limits assumed): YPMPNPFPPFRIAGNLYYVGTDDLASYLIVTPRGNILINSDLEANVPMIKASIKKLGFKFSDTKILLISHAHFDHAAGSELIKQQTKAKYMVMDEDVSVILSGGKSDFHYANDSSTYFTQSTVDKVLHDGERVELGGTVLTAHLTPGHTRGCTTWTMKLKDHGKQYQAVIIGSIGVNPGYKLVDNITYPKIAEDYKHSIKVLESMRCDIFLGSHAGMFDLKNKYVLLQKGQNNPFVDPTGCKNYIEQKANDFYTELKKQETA
T4 sequence (P52699 19-246 limits assumed): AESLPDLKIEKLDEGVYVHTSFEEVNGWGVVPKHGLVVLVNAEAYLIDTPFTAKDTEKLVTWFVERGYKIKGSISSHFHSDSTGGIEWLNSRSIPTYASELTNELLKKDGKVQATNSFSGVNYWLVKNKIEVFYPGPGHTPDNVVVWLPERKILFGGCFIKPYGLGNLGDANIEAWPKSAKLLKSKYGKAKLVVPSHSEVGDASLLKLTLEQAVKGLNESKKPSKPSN
T2 sequence (C7C422 43-270 limits assumed, looked up, species assumed): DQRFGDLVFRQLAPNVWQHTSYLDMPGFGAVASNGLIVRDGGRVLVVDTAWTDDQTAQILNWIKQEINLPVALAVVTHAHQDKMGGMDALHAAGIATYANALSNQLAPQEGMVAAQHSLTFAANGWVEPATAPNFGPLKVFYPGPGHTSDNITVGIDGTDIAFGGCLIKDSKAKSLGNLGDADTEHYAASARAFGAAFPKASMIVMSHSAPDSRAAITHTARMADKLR
Chain of BcII (P04190 31-257): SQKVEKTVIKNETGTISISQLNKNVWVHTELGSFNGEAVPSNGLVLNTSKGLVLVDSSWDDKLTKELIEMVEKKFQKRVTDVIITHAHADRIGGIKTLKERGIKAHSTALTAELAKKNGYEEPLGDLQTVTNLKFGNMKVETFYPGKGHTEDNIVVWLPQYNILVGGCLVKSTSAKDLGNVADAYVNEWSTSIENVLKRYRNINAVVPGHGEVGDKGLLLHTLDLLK
Chain of CphA (P26918 28-254): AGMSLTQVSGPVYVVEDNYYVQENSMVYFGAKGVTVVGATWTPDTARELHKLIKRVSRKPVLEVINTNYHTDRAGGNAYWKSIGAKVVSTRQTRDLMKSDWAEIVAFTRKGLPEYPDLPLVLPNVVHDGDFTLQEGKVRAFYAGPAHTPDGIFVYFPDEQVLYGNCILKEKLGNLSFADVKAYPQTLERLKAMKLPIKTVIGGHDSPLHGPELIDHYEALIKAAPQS

NC(=O)[C@@H]1CC[C@@H](NOS(=O)(=O)O)CN1 [hydrolyzed product(s)]
Binding of products of avibactam by wLOGSY NMR ([1]; SPM-1, hydrolyzed product NOE sign opposite to that of SPM-1 (free ligand)): no evidence for binding

FEZ-1 (Fluoribacter gormanii)
kcat/Km [2]: 70 ± 15 M⁻¹ s⁻¹
kcat/Km ([2]; pH 7.5, 30.0 °C): 70 ± 15 M⁻¹ s⁻¹

CC(C)(O/N=C(\C(=O)N[C@@H]1C(=O)N2C(C(=O)[O-])=C(C[n+]3ccccc3)CS[C@H]12)c1csc(N)n1)C(=O)O [ceftazidime]
Km [3]: > 1000 µM
Km [4]: 180 µM
Km [5]: 72 µM
Km [6]: 46 µM
Km [7]: > 30 µM
Km [8]: 46 µM

NC(=O)[C@@H]1CC[C@@H]2CN1C(=O)N2OS(=O)(=O)O [avibactam]
Binding by 1H CPMG NMR [9]: weak binding
Avibactam hydrolysis observed by NMR [10]: more efficient hydrolysis
Ki [11]: > 5000 µM
Reduction of the avibactam MS signal after VIM-4-catalyzed hydrolysis [12]: ~50 fold
Binding by 1H CPMG NMR ([1]; SPM-1 80 μM, avibactam 4 mM, Tris-D11 50 mM pH 7.5): weak binding
Binding by 1H CPMG NMR [13]: did not observe binding
Ki [14]: 2300 µM and ~2300 µM
Effect of avibactam on SPM-1-catalyzed ceftazidime hydrolysis ([15]; 1 mM avibactam, ceftazidime 30 µM): apparent activation
Residual activity ([15]; ceftazidime (30 µM) in the presence of 1 mM avibactam, HEPES buffer, 30°C): 140 + 15%
Binding by 1H CPMG NMR [16]: weak binding
Binding by 1H CPMG NMR [17]: weak binding
Binding by 1H CPMG NMR [18]: weak binding
Avibactam hydrolyzed (from absorbance at 230 nm) [19]: ~70%
Binding by 1H CPMG NMR [20]: did not observe binding
Ki [21]: > 5000 µM
Hydrolysis of avibactam without enzyme [22]: did not lead to detectable product levels
Ki [23]: 1700 µM and ~1700 µM
Amount of sulfate produced from avibactam (of the total avibactam product) [24]: < 15%
Avibactam hydrolysis observed by NMR [25]: more efficient hydrolysis
Ki [26]: > 5000 µM
